The structures appear in SMILES notation. Counter-ions that a name gives are not always drawn.

Assay [1] has as its target T1, PIM1 serine/threonine kinase (Homo sapiens, UniProt P11309).
T1 construct: purchased Carna Bioscience, Inc
As to the kind of experiment: PIM1 serine/threonine kinase inhibitory effect. In kind it is biochemical. To be noted: PIM1 serine/threonine kinase activity; ATP 40 μM; 30° C., 30 minutes. In a few lines: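 Recombinant PIM1 (0.15 μg/ml final) with 0.5 μM biotinylated substrate and 40 μM ATP in pH 7.0 HEPES/MgCl2 buffer, 30 min at 30° C. Compound range was 0.01–10000 nM final, n=2. HTRF detection with streptavidin-XL665 and anti-phospho antibody-cryptate, 1 h; IC50 from non-linear regression of the 665/620 ratio.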

The target of assay [2] is PIM1 transgenic cells (Ba/F3) (Homo sapiens, UniProt P11309). Briefly: Proliferation inhibitory effect on PIM1 transgenic cells. In kind it is cell-based, mouse. To be noted: proliferation inhibition, 72 hours, Cell Counting Kit-8, read-out: PIM1 IC50. In a few lines: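 Mouse Ba/F3 pro-B cells were retrovirally transduced with human PIM1 so that their proliferation depends on PIM1. Cells were treated with compound at 1–10000 nM final for 72 h, then read by CCK-8 (OD450−OD650). Inhibition was set against DMSO (0%) and no-cell blank (100%), and IC50 was obtained by two-parameter logistic regression.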
A general note: Formazan colour is commonly taken as a measure of viable cells.

T1 sequence (P11309 whole entry): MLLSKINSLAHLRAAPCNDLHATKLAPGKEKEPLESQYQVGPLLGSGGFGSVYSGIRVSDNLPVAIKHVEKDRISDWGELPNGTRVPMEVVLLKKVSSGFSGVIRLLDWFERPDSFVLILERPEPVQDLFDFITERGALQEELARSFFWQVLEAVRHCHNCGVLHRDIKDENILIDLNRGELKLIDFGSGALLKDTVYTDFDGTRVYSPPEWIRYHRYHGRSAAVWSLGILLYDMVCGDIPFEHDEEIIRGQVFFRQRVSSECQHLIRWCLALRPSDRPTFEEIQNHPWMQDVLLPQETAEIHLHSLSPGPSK
PIM1 transgenic cells (Ba/F3), sequence (P11309 whole entry, stated change not applied): as the sequence (P11309 whole entry) above

As to `N[C@H]1CC[C@H](Nc2cc(-c3n[nH]c(=O)o3)cc(F)c2Cl)CC1` [Example 40, 5-(3-{[(1r,4r)-4-aminocyclohexyl]amino}-4-chloro-5-fluorophenyl)-1,3,4-oxadiazol-2(3H)-one hydrochloride], the midpoint of inhibition in assay [1], the IC50, lay at 6.2 nM. For the same molecule, in assay [2], the GI50 was 440 nM.

For `NCCCCCCNc1cc(-c2n[nH]c(=O)o2)ccc1C(F)(F)F` [Example 4, 5-{3-[(6-aminohexyl)amino]-4-(trifluoromethyl)phenyl}-1,3,4-oxadiazol-2(3H)-one], inhibition in assay [1] was half-maximal at 50 nM (IC50). For the same molecule, in assay [2], the GI50 was 3000 nM.

For `C[C@H](Nc1cc(-c2n[nH]c(=O)o2)cc(Cl)c1Cl)C1CCNCC1` [Example 79, 5-(3,4-dichloro-5-{[(1S)-1-(piperidin-4-yl)ethyl]amino}phenyl)-1,3,4-oxadiazol-2(3H)-one dihydrochloride], the IC50 – broadly, the concentration that inhibits the measured activity by half – in assay [1] was found to be 0.8 nM. For the same molecule, the GI50 in assay [2] worked out at 53 nM.

Regarding `NCC1CCN(c2cc(-c3n[nH]c(=O)o3)ccc2Cl)CC1` [Example 6, 5-{3-[4-(aminomethyl)piperidin-1-yl]-4-chlorophenyl}-1,3,4-oxadiazol-2(3H)-one], the IC50 in assay [1] was determined as 59 nM. Also, the GI50 in assay [2] turned out to be 3600 nM.

The molecule `CC(Oc1cc(-c2n[nH]c(=O)o2)ccc1Br)C1CCNCC1` (stereo not drawn) [Example 236] returned a 50% inhibitory concentration (IC50) in assay [1] of 8.7 nM. Moreover, the GI50 in assay [2] stood at 180 nM.

In the case of `C[C@H](Nc1cc(-c2n[nH]c(=O)o2)ccc1C(F)(F)F)[C@H]1CC[C@H](NCC(F)(F)F)CC1` [Example 197, 5-[3-{[(1S)-1-{(1r,4S)-4-[(2,2,2-trifluoroethyl)amino]cyclohexyl}ethyl]amino}-4-(trifluoromethyl)phenyl]-1,3,4-oxadiazol-2(3H)-one hydrochloride], inhibition in assay [1] was half-maximal at 140 nM (IC50). Moreover, the GI50 in assay [2] came to 1900 nM.

`C[C@H](Nc1cc(-c2n[nH]c(=O)o2)cc(F)c1C(F)(F)F)C1(F)CCNCC1` [Example 159, 5-[3-fluoro-5-{[(1S)-1-(4-fluoropiperidin-4-yl)ethyl]amino}-4-(trifluoromethyl)phenyl]-1,3,4-oxadiazol-2(3H)-one hydrochloride] returned an IC50 in assay [1] of 2.8 nM. Also, the GI50 in assay [2] was 30 nM.

In turn, `C[C@H](Nc1cc(-c2n[nH]c(=O)o2)cc(Cl)c1Cl)[C@H]1CC[C@H](N)CC1` [Example 174, 5-[3-({(1S)-1-[(1r,4S)-4-aminocyclohexyl]ethyl}amino)-4,5-dichlorophenyl]-1,3,4-oxadiazol-2(3H)-one hydrochloride] came in with a concentration for half-maximal inhibition (IC50) in assay [1] of 1.6 nM. For the same molecule, the GI50 in assay [2] is 18 nM.

Regarding `C[C@H](Nc1cc(-c2n[nH]c(=O)o2)cc(Br)c1Cl)[C@H]1CC[C@H](N)CC1` [Example 171, 5-[3-({(1S)-1-[(1r,4S)-4-aminocyclohexyl]ethyl}amino)-5-bromo-4-chlorophenyl]-1,3,4-oxadiazol-2(3H)-one dihydrochloride], the concentration for half-maximal inhibition (IC50) in assay [1] amounted to 2 nM. Also, the GI50 in assay [2] was 28 nM.

`C[C@H](Nc1cc(-c2n[nH]c(=O)o2)cc(C(F)(F)F)c1Cl)C1CCNCC1` [Example 101, 5-[4-chloro-3-{[(1S)-1-(piperidin-4-yl)ethyl]amino}-5-(trifluoromethyl)phenyl]-1,3,4-oxadiazol-2(3H)-one dihydrochloride] displayed a half-inhibitory concentration (IC50) in assay [1] of 2.1 nM. Moreover, the GI50 in assay [2] stood at 61 nM.

As to `C[C@H](Nc1cc(-c2n[nH]c(=O)o2)ccc1Cl)[C@H]1CC[C@H](N)CC1` [Example 148, 5-[3-({(1S)-1-[(1r,4S)-4-aminocyclohexyl]ethyl}amino)-4-chlorophenyl]-1,3,4-oxadiazol-2(3H)-one hydrochloride], the concentration for half-maximal inhibition (IC50) in assay [1] is 3.7 nM. Also, the GI50 in assay [2] turned out to be 45 nM.

In turn, `N[C@H]1CO[C@H](CCc2cc(-c3n[nH]c(=O)o3)ccc2C(F)(F)F)OC1` [Example 28, 5-[3-{2-[(2r,5r)-5-amino-1,3-dioxan-2-yl]ethyl}-4-(trifluoromethyl)phenyl]-1,3,4-oxadiazol-2(3H)-one hydrochloride] had a 50% inhibitory concentration (IC50) in assay [1] of 38 nM. Also, the GI50 in assay [2] is 3500 nM.

For `CCN[C@H]1CC[C@H]([C@H](C)Nc2cc(-c3n[nH]c(=O)o3)ccc2C(F)(F)F)CC1` [Example 193, 5-[3-({(1S)-1-[(1r,4S)-4-(ethylamino)cyclohexyl]ethyl}amino)-4-(trifluoromethyl)phenyl]-1,3,4-oxadiazol-2(3H)-one hydrochloride], in assay [1], the IC50 amounted to 6.1 nM. Besides, the GI50 in assay [2] was determined as 160 nM.

For `C[C@H](Nc1cc(-c2n[nH]c(=O)o2)ccc1C(F)(F)F)[C@@H]1CC[C@@H](N)CO1` [Example 188, 5-[3-({(S)-1-[(2S,5R)-5-aminotetrahydro-2H-pyran-2-yl]ethyl}amino)-4-(trifluoromethyl)phenyl]-1,3,4-oxadiazol-2(3H)-one], half-maximal inhibition in assay [1] (IC50) required 2.9 nM. In addition, the GI50 in assay [2] was found to be 56 nM.

In the case of `C[C@@H](CN)Oc1ccc(-c2cc(-c3n[nH]c(=O)o3)ccc2C(F)(F)F)cc1` [Example 24, 5-[4′-{[(2S)-1-aminopropan-2-yl]oxy}-6-(trifluoromethyl)[1,1′-biphenyl]-3-yl]-1,3,4-oxadiazol-2(3H)-one hydrochloride], the half-inhibitory concentration (IC50) in assay [1] came out at 39 nM. Moreover, the GI50 in assay [2] was 870 nM.

For the molecule `O=c1[nH]nc(-c2ccc(C(F)(F)F)c(N[C@H]3CCC34CCNCC4)c2)o1` [Example 45, 5-[3-{[(1S)-7-azaspiro[3.5]nonan-1-yl]amino}-4-(trifluoromethyl)phenyl]-1,3,4-oxadiazol-2(3H)-one hydrochloride], half-maximal inhibition in assay [1] (IC50) was put at 20 nM. In assay [2], the GI50 is 390 nM.

The molecule `CC1CN(C(C)C2CCC(N)CC2)c2cc(-c3n[nH]c(=O)o3)cc(F)c2O1` [Example 252, 5-[(2S)-4-{(1S)-1-[(1r,4S)-4-aminocyclohexyl]ethyl}-8-fluoro-2-methyl-3,4-dihydro-2H-1,4-benzoxazin-6-yl]-1,3,4-oxadiazol-2(3H)-one hydrochloride] returned an IC50 in assay [1] of 6.6 nM. Also, the GI50 in assay [2] turned out to be 210 nM.

In the case of `NCC(O)C1CCN(c2cc(-c3n[nH]c(=O)o3)ccc2C(F)(F)F)CC1` (stereo not drawn) [Example 14, 5-{3-[4-(2-amino-1-hydroxyethyl)piperidin-1-yl]-4-(trifluoromethyl)phenyl}-1,3,4-oxadiazol-2(3H)-one hydrochloride], the concentration for half-maximal inhibition (IC50) in assay [1] came to 12 nM. Moreover, the GI50 in assay [2] is 1300 nM.

Molecule `N[C@H]1CC[C@H](CCNc2cc(-c3n[nH]c(=O)o3)ccc2C(F)(F)F)CC1` [Example 117, 5-[3-({2-[(1r,4r)-4-aminocyclohexyl]ethyl}amino)-4-(trifluoromethyl)phenyl]-1,3,4-oxadiazol-2(3H)-one hydrochloride] displayed a half-inhibitory concentration (IC50) in assay [1] of 31 nM. Besides, the GI50 in assay [2] is 1300 nM.

Consider `C[C@H](Nc1cc(-c2n[nH]c(=O)o2)cc(C(F)(F)F)c1Cl)[C@H]1C[C@@H](N)C1` [Example 183, 5-[3-({(1S)-1-[(1s,3R)-3-aminocyclobutyl]ethyl}amino)-4-chloro-5-(trifluoromethyl)phenyl]-1,3,4-oxadiazol-2(3H)-one hydrochloride], for which the IC50 in assay [1] was 1.8 nM. Also, the GI50 in assay [2] came out at 45 nM.

Regarding `CO/N=C1\CCN([C@@H](C)[C@H]2CCNC[C@H]2C)c2cc(-c3n[nH]c(=O)o3)cc(F)c21` [Example 246, 5-[(4E)-5-fluoro-4-(methoxyimino)-1-{(1S)-1-[(3S,4S)-3-methylpiperidin-4-yl]ethyl}-1,2,3,4-tetrahydroquinolin-7-yl]-1,3,4-oxadiazol-2(3H)-one hydrochloride], in assay [1], half-maximal inhibition (IC50) required 1.9 nM. The GI50 in assay [2] is 4900 nM.

In turn, `C[C@H](Nc1cc(-c2n[nH]c(=O)o2)cc(F)c1F)C1CCNCC1` [Example 89, 5-(3,4-difluoro-5-{[(1S)-1-(piperidin-4-yl)ethyl]amino}phenyl)-1,3,4-oxadiazol-2(3H)-one] came in with a half-maximal inhibitory concentration (IC50) in assay [1] of 5.4 nM. Moreover, in assay [2], the GI50 came out at 250 nM.

In assay [1], `C[C@H](Nc1cc(-c2n[nH]c(=O)o2)cc(F)c1C1CC1)[C@H]1CC[C@H](N)CC1` [Example 230, 5-[3-({(1S)-1-[(1r,4S)-4-aminocyclohexyl]ethyl}amino)-4-cyclopropyl-5-fluorophenyl]-1,3,4-oxadiazol-2(3H)-one] came in with a half-maximal inhibitory concentration (IC50) of 3.3 nM. In assay [2], the GI50 was determined as 22 nM.

In assay [1], `C[C@H](Nc1cc(-c2n[nH]c(=O)o2)cc(F)c1OC(F)(F)F)[C@H]1CC[C@H](N)CC1` [Example 170, 5-[3-({(1S)-1-[(1r,4S)-4-aminocyclohexyl]ethyl}amino)-5-fluoro-4-(trifluoromethoxy)phenyl]-1,3,4-oxadiazol-2(3H)-one hydrochloride] yielded an IC50 of 1.8 nM. Besides, the GI50 in assay [2] was determined as 17 nM.

`C[C@H](Nc1cc(-c2n[nH]c(=O)o2)ccc1C#N)C1CCNCC1` [Example 85, 4-(5-oxo-4,5-dihydro-1,3,4-oxadiazol-2-yl)-2-{[(1S)-1-(piperidin-4-yl)ethyl]amino}benzonitrile hydrochloride] came in with an IC50 in assay [1] of 4.7 nM. Also, in assay [2], the GI50 worked out at 610 nM.

In the case of `CC[C@H](Nc1cc(-c2n[nH]c(=O)o2)cc(F)c1C(F)(F)F)[C@H]1CC[C@H](N)CC1` [Example 198, 5-[3-({(1S)-1-[(1r,4S)-4-aminocyclohexyl]propyl}amino)-5-fluoro-4-(trifluoromethyl)phenyl]-1,3,4-oxadiazol-2(3H)-one], in assay [1], the IC50 is 3.5 nM. The GI50 in assay [2] worked out at 100 nM.

With `O=c1[nH]nc(-c2ccc(C(F)(F)F)c(NCCC3CCNCC3)c2)o1` [Example 64, 5-[3-{[2-(piperidin-4-yl)ethyl]amino}-4-(trifluoromethyl)phenyl]-1,3,4-oxadiazol-2(3H)-one hydrochloride], the IC50 in assay [1] amounted to 9 nM. Further, the GI50 in assay [2] came to 1300 nM.

The values are drawn from patent US20220024921A1, “1,3,4-OXADIAZOLONE COMPOUND AND PHARMACEUTICAL” (NIPPON SHINYAKU CO., LTD., priority 2018, published 2022).
